Test results from patent EP4007494B1, “METHOD OF IMPROVING COLD STRESS TOLERANCE AND CROP SAFETY” (Bayer CropScience LLC, priority 2019, dated 2021).
Like-named read-outs stand apart in the source and are kept apart here.

Tested on: canola
Conditions: for Average Relative Yield: relative to PROSPER EVERGOL

SMILES: O=C1C=C(N(Cc2ccc(Cl)nc2)CC(F)F)CO1 [Flupyradifurone, flupyradifurone]
- Average Relative Yield (Flupyradifurone 5 g per kg seed, alone or + QST713 1 × 10^6 CFU per seed): 102.0%
- Average Relative Yield (Flupyradifurone 10 g per kg seed): 100.5%
- Average Relative Stand Density (in vivo): 83.2%
- Average Vigor Rating (in vivo): 4.2
- Relative Delay in Emergence (in vivo): 3.5 days
- average relative stand density (in vivo): decreased
- delay in emergence (in vivo): significant delay in emergence
